Here are results for 93 compounds from a melting point compilation (Tetko et al.; mined from patent text by program, amines drawn as free bases though some values may be those of a salt).

The term melting point denotes the temperature, or range, at which the solid turns liquid.

Structures are written as SMILES.

The compound `COc1ccc(OC)c(C(=O)CC(O)C(=O)O)c1` (stereo not drawn) returned a melting point of 89 °C.

With `CC(C)c1ccc2nc3ccc(C(=O)OCCCc4cccnc4)cn3c(=O)c2c1`, the melting point was 108 to 109 °C.

On to `Cc1ccc(Cn2ncn(-c3nc(C)c(C(=O)NCc4csc(C(C)C)n4)s3)c2=O)cc1`, for which the melting point fell in the range of 151 to 153 °C.

On to `CCOC(=O)C1(Oc2ccc(O)cc2)CCC1`, for which the melting point is 118 to 120 °C.

Compound `O=C1c2ccccc2C(=O)N1CC(=O)N(CC(=O)N1CCc2ccccc21)c1ccccc1` displayed a melting point of 230 °C.

The compound `CSc1ccc2ccc(N3C(=O)c4ccccc4C3=O)nc2n1` showed a melting point of 235 °C.

Consider `CC1(C)CCC(N)=CC1=O`, for which the melting point is 153 to 154 °C.

Turning to `COc1ccc2c3c(c(=O)oc2c1)CN(CCc1ccccc1)CC3`, the melting point lay in the range of 135 to 136 °C.

`COC(=O)C(=O)c1ccc(OCCOc2cccc(F)c2)cc1`: the melting point lay in the range of 68 to 69 °C.

Turning to `CN1CCC(c2cccc3ccc(-c4cncnc4)cc23)CC1`, the melting point lay in the range of 122 to 123 °C.

Compound `O=C(Nc1cc(-c2ccnc3c(C(=O)c4cccs4)cnn23)ccc1F)c1ccncc1` showed a melting point of 175 to 179 °C.

The compound `Cn1c(COc2ccc(CC3SC(=O)NC3=O)cc2)nc2cccnc21` (stereo not drawn) showed a melting point of 223 to 225 °C.

Take `CCOC(=O)N(c1ccc(Cl)cc1)c1ccccc1[N+](=O)[O-]`: the melting point lay in the range of 90 to 93 °C.

The compound `CCn1c(=O)c2c(nc(/C=C/c3ccc(OS(=O)(=O)C(F)(F)F)c(OC)c3)n2C)n(CC)c1=O` returned a melting point of 250 to 251 °C.

As to `CCOCCNC(=O)C(c1ccccc1)c1ccccc1`, the melting point is 83.5 to 86.2 °C.

For the compound `CSC1=NC=C(I)C(c2nnn(C)n2)(C(F)(F)F)N1` (stereo not drawn), the melting point was 113 to 118 °C.

Regarding `Fc1ccccc1-c1nc2c(s1)NCCCC2`, the melting point fell in the range of 115 to 116 °C.

Take `Nc1cc(C(F)(F)C(F)(F)C(F)(F)C=CC(F)(F)C(F)(F)C(F)(F)c2ccc(O)c(N)c2)ccc1O`: the melting point was in the range of 187 to 188 °C.

In the case of `COc1ccc(C(=O)CI)cc1`, the melting point is 63 to 65 °C.

Regarding `C[C@@](N)(Cc1ccc(-c2cncnc2)cc1)C(=O)Nc1cc(Cl)cc(Cl)c1`, the melting point fell in the range of 124 to 126 °C.

`O=C1CN(C(=O)c2ccccc2)c2cc(F)ccc2N1` had a melting point of 226 to 227 °C.

`C=CC(=O)N(C)c1cccc2c(=O)c(C)c(-c3ccccc3)oc12` yielded a melting point of 136 to 137 °C.

`CC12CCC3c4cccc(N)c4CCC3C1CCC2O` (stereo not drawn) showed a melting point of 189 to 192 °C.

In turn, `N=C(Nc1ccc(CCNCc2ccccc2)cc1)c1cccs1` returned a melting point of 116 to 118 °C.

In turn, `CC=CC(=O)c1c(CCC)n(Cc2ccccc2Cl)c2cc(C(N)=O)ccc12` showed a melting point of 186 °C.

Regarding `CCCn1c(COC)nc2c(N)nc3ccc(OCCN4CCCCC4)cc3c21`, the melting point lay in the range of 160 to 162 °C.

The compound `Cc1ccccc1Cc1ccc(=O)[nH]n1` registered a melting point of 156 to 157 °C.

On to `COc1cc(COc2nn(-c3ccccc3)cc2/C=C/C2=NCCO2)ccc1OCc1nc(-c2ccco2)oc1C`, for which the melting point fell in the range of 162 to 163 °C.

Regarding `OCc1ccc(-c2ccc(-c3cn([C@H]4CN5CCC4CC5)nn3)cc2)cc1`, the melting point was 250 °C.

In turn, `O=c1cc2c(nn1-c1ccc(Cl)cc1)-c1ccccc1S(=O)(=O)CC2` displayed a melting point of over 310 °C.

For the compound `CCOC(=O)c1cn(C2CC2)c2c(F)c(C)c(F)cc2c1=O`, the melting point lay within 177 to 179 °C.

For the compound `O=C1c2cccc3cccc(c23)C(=O)N1CCI`, the melting point was in the range of 222 to 224 °C.

`COCCOc1ccc(NC(=O)OCc2ccccc2)cc1C(=O)O` returned a melting point of 130 to 131 °C.

Compound `CC12CCC3c4cc(OCC(F)(F)F)c(O)cc4C(=NO)CC3C1CCC2O` (stereo not drawn) returned a melting point of 187 to 191 °C.

The compound `Cc1c(SCCN2CCc3ccccc3C2)ccnc1CSc1nc2ccccc2[nH]1` registered a melting point of 90 to 94 °C.

The compound `CC(C)Oc1ccc2c(c1)Oc1cccc(F)c1S2(=O)=O` displayed a melting point of 151 to 152 °C.

As to `COC(=O)c1cc(Br)cc(Cl)c1NC(C)=O`, the melting point was in the range of 152 to 153 °C.

`CC(=O)OC[C@H]1CCn2c(cc3ccccc32)C1` showed a melting point of 63 to 64 °C.

For `Cc1nc2nn(-c3ccccc3)c(N)c2c(=O)[nH]1`, the melting point was 279 to 281 °C.

Take `CCOC(=O)C(CC)c1ccc(N[C@@H](CCC(N)=O)C(=O)O)cc1` (stereo partly drawn): the melting point was 157 °C.

Consider `CCCCCN(CCCCC)C(=O)[C@H]1Cc2c([nH]c3ccccc23)CN1`, for which the melting point was 157 to 158 °C.

In turn, `Cc1cc(CCCOc2c(C)cc(C#N)cc2C)on1` yielded a melting point of 46 to 48 °C.

In turn, `O=C(c1ccc([N+](=O)[O-])cc1)N1CCN(c2ccncc2)CC1` yielded a melting point of 158 to 160 °C.

The compound `COc1cc(O)c(C=O)cc1C(C)(C)C` returned a melting point of 75 to 78 °C.

Consider `CCCCCC(CC(=O)Nc1cc(CO)ccc1C(C)(C)C)c1ccccc1C(F)(F)F` (stereo not drawn), for which the melting point lay within 147 to 148 °C.

For `CC(=O)Nc1ccc(SC(F)(F)C(F)F)cc1`, the melting point was in the range of 134 to 135 °C.

Regarding `CCOC(=O)Cc1c(C)n(Cc2ccccc2)c2cccc(OCc3coc(-c4ccccc4)n3)c12`, the melting point was in the range of 103 to 105 °C.

Take `CCCn1c(-c2ccccc2)nc2cc(CO)ccc21`: the melting point came to 113 °C.

`S=C(Cc1ccncc1)N1CCOCC1` came in with a melting point of 162 to 163 °C.

Compound `Clc1cc(Oc2cc(Cl)nc(-c3ccc(Cl)s3)n2)ccn1` came in with a melting point of 154 to 156 °C.

Take `O=C1Nc2ccc(F)cc2C(C#Cc2ccccn2)(C(F)(F)F)N1` (racemic): the melting point was 155 °C.

On to `CC(=O)OCc1c(Br)cccc1N1CCn2c(nc3c2CCCC3)C1=O`, for which the melting point lay in the range of 205 to 206 °C.

In turn, `CCCCOC(=O)[C@H]1CN(c2ccc3c(c2)oc(=O)n3CC)C(=O)O1` gave a melting point of 155 to 157 °C.

In turn, `NCCCCc1ccc(C2=NNC(=O)CC2)cc1` gave a melting point of 167 to 168 °C.

As for `Cc1c(NC(=O)c2ccc(CC(=O)C3CCCO3)cc2)ccc2cc(CN3CCCC3)cnc12` (stereo not drawn), the melting point came to 102 °C.

For the compound `CC(=O)Oc1ccc(C(=O)O)c2ccccc12`, the melting point was in the range of 182 to 184 °C.

On to `O=c1c(Cl)nsnc1Sc1ccccc1`, for which the melting point lay within 99.5 to 102 °C.

The compound `O=C(CCCOc1ccc(C=Cc2ccncc2)cc1)Nc1nnn[nH]1` displayed a melting point of 274 to 276 °C.

Compound `O=C(O)c1cc(F)cc(-c2ccc(F)c3cc(Cc4cccc(C(F)(F)F)c4)sc23)c1` came in with a melting point of 169 to 170 °C.

For the compound `Oc1ccc(CBr)cc1-n1nc2ccccc2n1`, the melting point lay in the range of 169 to 171 °C.

`O=C(O)CCc1cc2c(c(Br)c1Br)OCC2` showed a melting point of 224 to 226 °C.

In turn, `Cc1cccc(NC(=O)NC2CN(C(=O)C(C)(C)C)c3ccccc3N(CC(C)C)C2=O)c1` (stereo not drawn) displayed a melting point of 152 °C.

Turning to `O=C(CCCCCCNC(=O)c1ccc(C(C(=O)Nc2cccc3cccnc23)C(=O)Nc2cccc3cccnc23)cc1)NO`, the melting point lay in the range of 212 to 215 °C.

In the case of `COC(=O)c1cc(Oc2ccc([N+](=O)[O-])cc2)ccc1OC`, the melting point fell in the range of 115 to 118 °C.

For the compound `COC(=O)CCCc1ccc(C(=O)C=Cc2ccccc2)cc1`, the melting point was in the range of 43 to 44 °C.

In turn, `O=C(c1cccnc1)N1CCC(c2cccc(Cl)c2)=N1` returned a melting point of 124 to 126 °C.

Compound `COc1cc(Br)c(OC)c(C(N)=O)c1` returned a melting point of 222 to 225 °C.

Regarding `COc1cc(OC)c(C2=CCN(C)CC2)c(OC)c1`, the melting point lay in the range of 112 to 114 °C.

The compound `Cn1nc(Cl)c2c(=O)n3c(nc21)SCC3` came in with a melting point of 222 °C.

With `CCOC(=O)C1=C(N)N=C(OCC)C(C(=O)OCC)C1c1ccc(C)cc1` (stereo not drawn), the melting point amounted to 119 °C.

In the case of `COc1cccc2c1-c1ccc3c(c1C(O)O2)C(C)=CC(C)(C)N3` (stereo not drawn), the melting point lay in the range of 184 to 185 °C.

As for `COc1ccc(C2Sc3cc(Cl)ccc3NC(=O)C2O)cc1` (stereo not drawn), the melting point lay in the range of 237 to 241 °C.

For the compound `O=C(CCc1ccccc1)c1ccc(OCCO)cc1`, the melting point is 41 to 43 °C.

As for `COc1ccc(OCCc2c[nH]cn2)cc1`, the melting point was in the range of 178 to 181 °C.

Compound `Cc1cccc(-c2n[nH]cc2-c2ccnc(-c3ccc(S(C)(=O)=O)cc3)c2)n1` came in with a melting point of 232 to 234 °C.

As for `CS(=O)(=O)c1ccc(-c2cc(C(=O)CCCO[N+](=O)[O-])nn2-c2ccc(F)cc2)cc1`, the melting point was in the range of 134 to 136 °C.

For `CC(=O)N1CCC[C@H]1C(=O)Nc1ccc(S(N)(=O)=O)cc1`, the melting point was in the range of 283 to 285 °C.

`COC(=O)c1ccc2c(c1)NC(=O)C(C)O2` (stereo not drawn): the melting point was 156 to 159 °C.

In turn, `O=C1OC2(CC(c3cccc(Oc4ccccc4)c3)=NO2)c2ccccc21` (stereo not drawn) came in with a melting point of 114 to 116 °C.

Regarding `Cn1cc(-c2ccc(Cl)c(C(F)(F)F)c2)c(=O)c(-c2cccs2)c1`, the melting point was in the range of 166 to 168 °C.

Compound `COC(=O)c1cc(Br)cc([N+](=O)[O-])c1SCc1ccccc1` displayed a melting point of 65 to 66 °C.

On to `CC(C)(C)CCNC(=O)c1ccc(CC(C)(C)C)cc1`, for which the melting point is 124 to 126 °C.

`CN1CCc2c(Cl)csc2C(c2ccccc2)C1` (stereo not drawn) displayed a melting point of 67 °C.

In turn, `CCC(=O)Nc1snc(N(CC)CC)c1C#N` yielded a melting point of 188 to 189 °C.

In turn, `CNCC(O)c1cn(C(c2ccccc2)(c2ccccc2)c2ccccc2)cn1` (stereo not drawn) showed a melting point of 169 to 171 °C.

As for `Cc1nc(CO)c(OCc2ccccc2)c(=O)n1C`, the melting point lay within 93 to 95 °C.

For the compound `O=[N+]([O-])c1cc(CCCl)ccc1O`, the melting point is 53 to 55 °C.

The compound `COc1cc2nc(N)nc(-c3cccc(O)c3)c2cc1OC` had a melting point of 256 to 258 °C.

With `CS(=O)c1ccc(-c2coc3ccc(-c4nnc(SCc5cccc(C(F)(F)F)c5)o4)cc23)cc1` (stereo not drawn), the melting point fell in the range of 176 to 177 °C.

Turning to `OC(c1cccs1)C1CCN(CCc2ccccc2)CC1` (stereo not drawn), the melting point fell in the range of 123 to 125 °C.

The compound `O=C1CCN(c2ccncc2)CC1` yielded a melting point of 101 to 104 °C.

Consider `O=C1NN(C(=O)Oc2ccc(Cl)cc2)C(c2ccccc2)C1c1ccccc1` (stereo not drawn), for which the melting point was 175 to 177 °C.

In the case of `COc1nc(C)c(N2CCCn3c2nc2c(Cl)ccc(C(OC(F)F)C(F)(F)F)c23)c(C)n1` (stereo not drawn), the melting point fell in the range of 169 to 170 °C.
